Where two headings read alike, the source gives them in different places.
Legend:
[1] = tested on: PSA secretion of LNCaP cells; experiment: Inhibitory activity on PSA secretion of LNCaP cells; format: cell-based; conditions: Homo sapiens, 96 h, read-out: IC50 (inhibition of PSA secretion of LNCaP cells)
Experimental: The following in vitro assay was performed to determine the activity of the compounds of the present invention for inhibiting prostate specific antigen (PSA) secretion of LNCaP cells.
(11). Testosterone culture medium: RIPM 1640 culture medium, 10% CS-FBS, 1% Pen Strep, 1 nM testosterone
LNCaP cells were subcultured in cell culture medium, resuspended in active carbon culture medium, and then inoculated into a 96-well plate (100 μl/well) with an inoculation density of 5×10^4 cells/well.
(§1) The test compounds were dissolved in DMSO (dimethyl sulfoxide) and prepared as a 10 mM stock solution. When used, the stock solution was diluted with 5×DMSO and then diluted with a threefold gradient to obtain 8 gradient concentrations. Then, the 8 gradient concentrations were each diluted with 20× testosterone culture medium, in order to ensure DMSO concentration in each culture system was 0.5%. Diluted test compounds remained to be tested.
10 μl of diluted test compounds were added to a 96-well plate and mixed gently. 10 μl of 0.5% DMSO diluted with active carbon culture medium was added to the blank group, and 10 μl of 0.5% DMSO diluted with testosterone culture medium was added to the control group. The 96-well plate was cultured in an incubator under the conditions of 37° C. and 5% CO2.
After 4 days of incubation, 60 μl of cell cultural supernatants were collected, and the OD450 value per well was measured on a NOVO Star microplate reader using PSA kit (Abnova, KA0208).
(§2) IC50 values were calculated from the data of the inhibition rates of the test compounds at various concentrations.

[2] = tested on: PSA secretion of LNCaP-AR cells (AR-overexpressed LNCaP cells); experiment: Agonist activity on PSA secretion of LNCaP-AR cells; format: cell-based; conditions: 96 h, 4 days, OD value (test compounds)/OD value (blank control), blank control 100
Experimental: The following in vitro assay was performed to determine the activity of a high concentration of the compounds of the present invention for agitating the PSA secretion of LNCaP-AR cells (AR-overexpressed LNCaP cells, referred to as “LNCaP-AR cells” for short, constructed by a retroviral transfection method).
LNCaP-AR cells were subcultured in cell culture medium, resuspended in active carbon culture medium, and then inoculated into a 96-well plate (100 μl/well) with an inoculation density of 5×10^4 cells/well.
as §1, with “DMSO into the two concentrations of 2 mM” for “5×DMSO”, “0.6 mM.” for “then diluted with a threefold gradient to obtain 8 gradient concentrations.”, “diluted” for “8 gradient”, “active carbon” for “testosterone”
10 μl of diluted test compounds were added to a 96-well plate and mixed gently. 10 μl of 0.5% DMSO diluted with active carbon culture medium was added to the blank control group.
After 4 days of incubation, 60 μl of cell cultural supernatants were collected, and the OD value of PSA per well was measured on a NOVO Star microplate reader using PSA kit (abnova, KA0208).
Agonist activity of the test compounds of the present invention on PSA secretion of LNCaP-AR cells was evaluated by the percentage of OD value (test compounds)/OD value (blank control). When the percentage value is greater than 100, the test compounds have agonist activity on PSA secretion of LNCaP-AR cells compared to the blank control. Conversely, when the percentage value is less than 100, the test compounds have no agonist activity on PSA secretion of LNCaP-AR cells compared to the blank control.

[3] = Pharmacokinetics assay in rats, intragastric administration; format: in vivo; conditions: Sprague-Dawley, rat, po, male SD rats, 5 mg/kg; for Vd/F: read-out: Apparent Distribution Volume Vz/F; for AUC: read-out: Area Under Curve AUC; for CL/F: read-out: Clearance CLz/F; for half-life: read-out: Half-Life T½ (converted); for MRT: read-out: Mean Residence Time MRT; for Cmax: read-out: Plasma Conc. Cmax
Experimental: Male rats were used as test animals. The compounds of Example 6, Example 9, Example 11, Example 13, Example 15, Example 16, Example 17, Example 44, and Example 45 were administered intragastrically to rats to determine the drug concentration in plasma at different time points by LC/MS/MS method. The pharmacokinetic behavior of the compounds of the present invention was studied and evaluated in rats.
27 healthy adult male Sprague-Dawley (SD) rats, purchased from SINO-BRITISH SIPPR/BK LAB. ANIMAL LTD., CO, Certificate No.: SCXK (Shanghai) 2008-0016, were divided into 9 groups, with 3 rats in each group.
The appropriate amount of test compounds was weighed and mixed with 0.5% CMC-Na to prepare a 0.5 mg/mL suspension by an ultrasonic method.
After an overnight fast, 27 SD rats were divided into 9 groups, and administered the compounds intragastrically at a dose of 5.0 mg/kg and an administration volume of 10 mL/kg.
Compounds of Example 6, Example 9, Example 11, Example 13, Example 15, Example 16, Example 17, Example 44, and Example 45 were administered intragastrically to rats. Blood samples (0.1 mL) were taken from the orbital sinus before administration, and at 0.5 h, 1.0 h, 2.0 h, 3.0 h, 4.0 h, 6.0 h, 8.0 h, 11.0 h, and 24.0 h after administration, stored in heparinized tubes, and centrifuged for 5 minutes at 3,500 rpm to separate blood plasma. The plasma samples were stored at −20° C. The rats were fed 2 hours after administration.
The concentration of the different test compounds in rat plasma after intragastrically administering the test compounds was determined by LC-MS/MS method. The linearity of the method is 1.00-2000 ng/ml. Plasma samples were analyzed after protein precipitation was accomplished by the addition of methanol.

[4] = tested on: LNCaP cells; experiment: Proliferation inhibition of LNCaP cells (CCK-8); format: cell-based; conditions: Homo sapiens, 144 h, cultured 3 + 3 days, CCK-8, OD at 450 nm
Experimental: The following in vitro assay was performed to determine the activity of the compounds of the present invention for inhibiting the proliferation of LNCaP cells.
(1). Cell counting reagent CCK-8 (DOJINDO, CK04)
See experimental procedure from Test Example 1.
After LNCaP cells were cultured for 3 days, the culture medium, test compounds, blank group, and control group were renewed with half of the liquid volume, and were cultured for another 3 days. Then, all 96-well plates were mixed gently with 10 μl of CCK-8 and cultured in an incubator for 2-3 hours under the conditions of 37° C. and 5% CO2. The OD value per well was measured at 450 nm on a Victor3 microplate reader.
as §2

[5] = LNCaP cells, 1 nM testosterone medium, 4 days of incubation, PSA kit OD450

Row | Compound | IC50 ([1]; LNCaP) | activity at 3 µM [2] | activity at 10 µM [2] | Vd/F ([3]; in vivo) | AUC ([3]; in vivo) | CL/F ([3]; in vivo) | half-life ([3]; in vivo) | MRT ([3]; in vivo) | Cmax ([3]; in vivo) | IC50 [1, 5] | IC50 [4] | Vd/F ([3]; plasma) | AUC ([3]; plasma) | CL/F ([3]; plasma) | half-life ([3]; plasma) | MRT ([3]; plasma) | Cmax ([3]; plasma)
1 | CC1(C)C(=O)N(c2ccc(C#N)c(C(F)(F)F)c2)C(=S)N1c1ccc(O[C@@H]2COC[C@H]2O)cc1 [Example 15, 4-(3-(4-(((3R,4R)-4-hydroxytetrahydrofuran-3-yl)oxy)phenyl)-4,4-dimethyl-5-oxo-2-thioxoimidazolidin-1-yl)-2-(trifluoromethyl)benzonitrile] | 0.052 µM | 77.5% | 84.8% | 3.97 ± 0.341 L/kg | 21.4 ± 4.1 µg·h/mL | 0.239 ± 0.045 L/h/kg | 11.7 ± 1.7 h | 18.2 ± 2.3 h | 0.999 ± 0.172 µg/mL | – | – | – | – | – | – | – | –
2 | CC1(C)C(=O)N(c2ccc(C#N)c(C(F)(F)F)c2)C(=S)N1c1ccc(OCCO)c(F)c1 [Example 12, 4-(3-(3-Fluoro-4-(2-hydroxyethoxy)phenyl)-4,4-dimethyl-5-oxo-2-thioxoimidazolidin-1-yl)-2-(trifluoromethyl)benzonitrile] | – | 69.6% | 90.7% | – | – | – | – | – | – | 0.033 µM | 0.146 µM | – | – | – | – | – | –
3 | CC1(C)C(=O)N(c2ccc(C#N)c(C(F)(F)F)c2)C(=S)N1c1ccc(OC[C@H](O)CO)cc1 [Example 45, (R)-4-(3-(4-(2,3-Dihydroxypropoxy)phenyl)-4,4-dimethyl-5-oxo-2-thioxoimidazolidin-1-yl)-2-(trifluoromethyl)benzonitrile] | – | – | – | – | – | – | – | – | – | 0.035 µM | 0.074 µM | 3.27 ± 0.261 L/kg | 13 ± 0.365 µg·h/mL | 0.384 ± 0.0108 L/h/kg | 5.9 ± 0.3 h | 10 ± 0.6 h | 0.98 ± 0.173 µg/mL
4 | CC1(C)C(=O)N(c2ccc(C#N)c(C(F)(F)F)c2)C(=S)N1c1ccc(OCC(O)CO)c(F)c1 (centres unmarked) [Example 13, 4-(3-(4-(2,3-Dihydroxypropoxy)-3-fluorophenyl)-4,4-dimethyl-5-oxo-2-thioxoimidazolidin-1-yl)-2-(trifluoromethyl)benzonitrile] | 0.088 µM | 53.6% | 71.5% | 2.31 ± 0.553 L/kg | 26.5 ± 7.38 µg·h/mL | 0.201 ± 0.066 L/h/kg | 8.1 ± 0.65 h | 13.1 ± 1.5 h | 1.55 ± 0.197 µg/mL | – | – | – | – | – | – | – | –
5 | CC1(C)C(=O)N(c2ccc(C#N)c(C(F)(F)F)c2)C(=S)N1c1ccc(OCC2(N)CC2)c(F)c1 [Example 6, 4-(3-(4-((1-Aminocyclopropyl)methoxy)-3-fluorophenyl)-4,4-dimethyl-5-oxo-2-thioxoimidazolidin-1-yl)-2-(trifluoromethyl)benzonitrile] | 0.024 µM | 93.2% | 100% | 6.02 ± 1.69 L/kg | 16.8 ± 7.48 µg·h/mL | 0.345 ± 0.146 L/h/kg | 13.1 ± 4.6 h | 17.8 ± 6.2 h | 1.2 ± 0.33 µg/mL | – | – | – | – | – | – | – | –
6 | CC1(C)C(=O)N(c2ccc(C#N)c(C(F)(F)F)c2)C(=S)N1c1ccc(O[C@@H]2COC[C@H]2O)c(F)c1 [Example 8, 4-(3-(3-fluoro-4-(((3R,4R)-4-hydroxytetrahydrofuran-3-yl)oxy)phenyl)-4,4-dimethyl-5-oxo-2-thioxoimidazolidin-1-yl)-2-(trifluoromethyl)benzonitrile] | 0.021 µM | 65% | 99.5% | – | – | – | – | – | – | – | – | – | – | – | – | – | –
7 | CC1(C)C(=O)N(c2ccc(C#N)c(C(F)(F)F)c2)C(=S)N1c1ccc(OCCO)nc1 [Example 10, 4-(3-(6-(2-Hydroxyethoxy)pyridin-3-yl)-4,4-dimethyl-5-oxo-2-thioxoimidazolidin-1-yl)-2-(trifluoromethyl)benzonitrile] | – | 74.7% | 68.1% | – | – | – | – | – | – | 0.023 µM | 0.131 µM | – | – | – | – | – | –
8 | CC1(C)C(=O)N(c2ccc(C#N)c(C(F)(F)F)c2)C(=S)N1c1ccc(O[C@H]2COC[C@@H]2O)c(F)c1 [Example 9, 4-(3-(3-fluoro-4-(((3S,4S)-4-hydroxytetrahydrofuran-3-yl)oxy)phenyl)-4,4-dimethyl-5-oxo-2-thioxoimidazolidin-1-yl)-2-(trifluoromethyl)benzonitrile] | 0.026 µM | 90.8% | 85% | 4.59 ± 0.556 L/kg | 18.8 ± 3.3 µg·h/mL | 0.271 ± 0.0462 L/h/kg | 11.8 ± 1.1 h | 18.3 ± 1.9 h | 0.772 ± 0.083 µg/mL | – | – | – | – | – | – | – | –
9 | CC1(C)C(=O)N(c2ccc(C#N)c(C(F)(F)F)c2)C(=S)N1c1ccc(OC[C@@H](O)CO)cc1 [Example 44, (S)-4-(3-(4-(2,3-Dihydroxypropoxy)phenyl)-4,4-dimethyl-5-oxo-2-thioxoimidazolidin-1-yl)-2-(trifluoromethyl)benzonitrile] | – | 77.2% | 92.7% | – | – | – | – | – | – | 0.022 µM | 0.033 µM | 2.45 ± 0.376 L/kg | 19.3 ± 4.17 µg·h/mL | 0.268 ± 0.0648 L/h/kg | 6.41 ± 0.6 h | 10.5 ± 1.3 h | 1.3 ± 0.275 µg/mL

Reference: patent publication US9586947B2, “Imidazoline derivatives, preparation methods thereof, and their applications in medicine” (priority 2012, dated 2017)
